Assay results: patent publication US20210069145A1, “COMPOSITIONS AND METHODS FOR REDUCING A FATTY ACID DESATURATION INDEX IN A SUBJECT IN NEED THEREOF” (Amarin Pharmaceuticals Ireland Limited, priority 2013, published 2021)

Tested on: Lipoprotein Particle Concentrations
Assay: Lipoprotein particle concentrations, 12-week double-blind placebo-controlled study of >96% E-EPA in statin-treated patients
Assay type: in vivo, human
Conditions: 12 weeks; for IDL, Change From Baseline, % / IDL, End of Treatment / Large HDL, Change From Baseline, % / Large HDL, End of Treatment / Large LDL, Change From Baseline, % / Large LDL, End of Treatment / Large VLDL, Change From Baseline, % / Large VLDL, End of Treatment / Medium HDL, Change From Baseline, % / Medium HDL, End of Treatment / Medium VLDL, Change From Baseline, % / Medium VLDL, End of Treatment / Small HDL, Change From Baseline, % / Small HDL, End of Treatment / Small LDL, Change From Baseline, % / Small LDL, End of Treatment / Small VLDL, Change From Baseline, % / Small VLDL, End of Treatment / Total HDL, Change From Baseline, % / Total HDL, End of Treatment / Total LDL, Change From Baseline, % / Total LDL, End of Treatment / Total VLDL, Change From Baseline, % / Total VLDL, End of Treatment: median
Method: A multi-center, placebo-controlled, randomized, double-blind, 12-week study was performed to evaluate the efficacy and safety of >96% E-EPA in patients with fasting triglyceride levels ≥200 mg/dl and <500 mg/dl despite statin therapy (the mean of two qualifying entry values needed to be ≥185 mg/dl and at least one of the values needed to be ≥200 mg/dl). The primary objective of the study was to determine the efficacy of >96% E-EPA 2 g daily and 4 g daily, compared to placebo, in lowering fasting TG levels in patients with high risk for cardiovascular disease and with fasting TG levels ≥200 mg/dl and <500 mg/dl, despite treatment to LDL-C goal on statin therapy.
The population for this study was men and women >18 years of age with a body mass index ≤45 kg/m^2 with fasting TG levels greater than or equal to 200 mg/dl and less than 500 mg/dl and on a stable does of statin therapy (with or without ezetimibe). The statin was atorvostatin, rosuvastatin or simvastatin. The dose of statin must have been stable for ≥4 weeks prior to the LDL-C/TG baseline qualifying measurement for randomization. The statin dose was optimized such that the patients are at their LDL-C goal at the LDL-C/TG baseline qualifying measurements. The same statin at the same dose was continued until the study ended.
Approximately 702 patients were randomized at approximately 80 centers in the U.S. The study was a 18- to 20-week, Phase 3, multi-center study consisting of 2 study periods: (1) A 6- to 8-week screening period that included a diet and lifestyle stabilization, a non-statin lipid-altering treatment washout, and an LDL-C and TG qualifying period and (2) A 12-week, double-blind, randomized, placebo-controlled treatment period.
After confirmation of qualifying fasting LDL-C and TG values, eligible patients entered a 12-week, randomized, double-blind treatment period. At Visit 4 (Week 0), patients were randomly assigned to 1 of the following treatment groups: • >96% E-EPA 2 g daily, • >96% E-EPA 4 g daily, or • Placebo.
During the double-blind treatment period, patients were to take 2 capsules (>96% E-EPA or matching placebo) in the morning and 2 capsules in the evening for a total of 4 capsules per day. • Patients in the >96% E-EPA 2 g/day treatment group received 1>96% E-EPA 1 g capsule and 1 matching placebo capsule in the morning and in the evening. • Patients in the >96% E-EPA 4 g/day treatment group received 2>96% E-EPA 1 g capsules in the morning and evening.
The primary efficacy variable for the double-blind treatment period was percent change in TG from baseline to Week 12 endpoint. The secondary efficacy variables for the double-blind treatment period included the following: • Percent changes in total cholesterol (TC), high-density lipoprotein cholesterol (HDL-C), LDL-C, calculated non-HDL-C, and very low-density lipoprotein cholesterol (VLDL-C) from baseline to Week 12 endpoint; • Percent change in very low-density lipoprotein TG from baseline to Week 12; • Percent changes in apolipoprotein A-I (apo A-I), apolipoprotein B (apo B), and apo A-I/apo B ratio from baseline to Week 12; • Percent changes in lipoprotein(a) from baseline to Week 12; • Percent changes in LDL particle number and size, measured by nuclear magnetic resonance, from baseline to Week 12; • Percent change in remnant-like particle cholesterol from baseline to Week 12; • Percent change in oxidized LDL from baseline to Week 12; • Changes in FPG and HbA1c from baseline to Week 12; • Change in insulin resistance, as assessed by the homeostasis model index insulin resistance, from baseline to Week 12; • Percent change in lipoprotein associated phospholipase A2 (Lp-PLA2) from baseline to Week 12; • Change in intracellular adhesion molecule-1 from baseline to Week 12; • Change in interleukin-2 from baseline to Week 12; • Change in plasminogen activator inhibitor-1 from baseline to Week 12. […]

[1] = 2 g/day, placebo-adjusted Hodges-Lehmann median
[2] = 4 g/day, placebo-adjusted Hodges-Lehmann median
[3] = 4 g/day, placebo-adjusted Hodges-Lehmann median, listed as Ethyl Eicosapentaenoate
[4] = 4 g/day, placebo-adjusted Hodges-Lehmann median, listed as IPE

CC/C=C\C/C=C\C/C=C\C/C=C\C/C=C\CCCC(=O)OCC [ethyl eicosapentaenoate, all-cis eicosa-5,8,11,14,17-pentaenoic acid ethyl ester]
IDL, Change From Baseline, % (2 g/day, n = 222): 10.5%
IDL, End of Treatment (2 g/day, n = 222): 63.5 nmol/L
Large HDL, Change From Baseline, % (2 g/day, n = 222): −4.0%
Large HDL, End of Treatment (2 g/day, n = 222): 2.4 µmol/L
Large LDL, Change From Baseline, % (2 g/day, n = 222): 47.7%
Large LDL, End of Treatment (2 g/day, n = 222): 202.0 nmol/L
Large VLDL, Change From Baseline, % (2 g/day, n = 222): −19.7%
Large VLDL, End of Treatment (2 g/day, n = 222): 10.0 nmol/L
Medium HDL, Change From Baseline, % (2 g/day, n = 222): 2.9%
Medium HDL, End of Treatment (2 g/day, n = 222): 7.2 µmol/L
Medium VLDL, Change From Baseline, % (2 g/day, n = 222): 7.9%
Medium VLDL, End of Treatment (2 g/day, n = 222): 59.6 nmol/L
Small HDL, Change From Baseline, % (2 g/day, n = 222): −0.6%
Small HDL, End of Treatment (2 g/day, n = 222): 23.8 µmol/L
Small LDL, Change From Baseline, % (2 g/day, n = 222): −4.3%
Small LDL, End of Treatment (2 g/day, n = 222): 920.5 nmol/L
Small VLDL, Change From Baseline, % (2 g/day, n = 222): 22.1%
Small VLDL, End of Treatment (2 g/day, n = 222): 49.6 nmol/L
Total HDL, Change From Baseline, % (2 g/day, n = 222): 0.7%
Total HDL, End of Treatment (2 g/day, n = 222): 34.7 µmol/L
Total LDL, Change From Baseline, % (2 g/day, n = 222): 4.7%
Total LDL, End of Treatment (2 g/day, n = 222): 1215 nmol/L
Total VLDL, Change From Baseline, % (2 g/day, n = 222): 12.0%
Total VLDL, End of Treatment (2 g/day, n = 222): 122.4 nmol/L
IDL, Median Change From Baseline IPE 2 g/day vs Placebo, % [1]: 8.6%
Large HDL, Median Change From Baseline IPE 2 g/day vs Placebo, % [1]: −13.5%
Large LDL, Median Change From Baseline IPE 2 g/day vs Placebo, % [1]: 26.5%
Large VLDL, Median Change From Baseline IPE 2 g/day vs Placebo, % [1]: −24.2%
Medium HDL, Median Change From Baseline IPE 2 g/day vs Placebo, % [1]: −4.5%
Medium VLDL, Median Change From Baseline IPE 2 g/day vs Placebo, % [1]: 2.6%
Small HDL, Median Change From Baseline IPE 2 g/day vs Placebo, % [1]: −0.2%
Small LDL, Median Change From Baseline IPE 2 g/day vs Placebo, % [1]: −14.7%
Small VLDL, Median Change From Baseline IPE 2 g/day vs Placebo, % [1]: 16.5%
Total HDL, Median Change From Baseline IPE 2 g/day vs Placebo, % [1]: −3.1%
Total LDL, Median Change From Baseline IPE 2 g/day vs Placebo, % [1]: −7.5%
Total VLDL, Median Change From Baseline IPE 2 g/day vs Placebo, % [1]: 1.8%
reduction of median concentration of small LDL particles over baseline when adjusted for placebo control (4 g per day): 13.5%
reduction of median concentration of total HDL over baseline when adjusted for placebo (4 g per day): 7.4%
reduction of median concentration of total LDL over baseline when adjusted for placebo (4 g per day): 7.7%
reduction of median concentration of total VLDL over baseline when adjusted for placebo (4 g per day): 12.2%
IDL, Change From Baseline, % (4 g/day, n = 216): 23.7%
IDL, End of Treatment (4 g/day, n = 216): 63.0 nmol/L
Large HDL, Change From Baseline, % (4 g/day, n = 216): −21.6%
Large HDL, End of Treatment (4 g/day, n = 216): 1.9 µmol/L
Large LDL, Change From Baseline, % (4 g/day, n = 216): 55.2%
Large LDL, End of Treatment (4 g/day, n = 216): 172.5 nmol/L
Large VLDL, Change From Baseline, % (4 g/day, n = 216): −41.9%
Large VLDL, End of Treatment (4 g/day, n = 216): 7.7 nmol/L
Medium HDL, Change From Baseline, % (4 g/day, n = 216): 4.2%
Medium HDL, End of Treatment (4 g/day, n = 216): 6.9 µmol/L
Medium VLDL, Change From Baseline, % (4 g/day, n = 216): −6.9%
Medium VLDL, End of Treatment (4 g/day, n = 216): 49.7 nmol/L
Small HDL, Change From Baseline, % (4 g/day, n = 216): −3.9%
Small HDL, End of Treatment (4 g/day, n = 216): 23.1 µmol/L
Small LDL, Change From Baseline, % (4 g/day, n = 216): −1.1%
Small LDL, End of Treatment (4 g/day, n = 216): 902.5 nmol/L
Small VLDL, Change From Baseline, % (4 g/day, n = 216): 8.3%
Small VLDL, End of Treatment (4 g/day, n = 216): 46.8 nmol/L
Total HDL, Change From Baseline, % (4 g/day, n = 216): −4.0%
Total HDL, End of Treatment (4 g/day, n = 216): 32.6 µmol/L
Total LDL, Change From Baseline, % (4 g/day, n = 216): 3.8%
Total LDL, End of Treatment (4 g/day, n = 216): 1191 nmol/L
Total VLDL, Change From Baseline, % (4 g/day, n = 216): −2.5%
Total VLDL, End of Treatment (4 g/day, n = 216): 110.0 nmol/L
IDL, Median Change From Baseline IPE 4 g/day vs Placebo, % [2]: 10.0%
Large HDL, Median Change From Baseline IPE 4 g/day vs Placebo, % [2]: significantly reduced
Large LDL, Median Change From Baseline IPE 4 g/day vs Placebo, % [2]: increased
Large VLDL, Median Change From Baseline IPE 4 g/day vs Placebo, % [2]: significantly reduced
Medium HDL, Median Change From Baseline IPE 4 g/day vs Placebo, % [2]: −6.5%
Medium VLDL, Median Change From Baseline IPE 4 g/day vs Placebo, % [2]: significantly reduced
Small HDL, Median Change From Baseline IPE 4 g/day vs Placebo, % [2]: −2.8%
Small LDL, Median Change From Baseline IPE 4 g/day vs Placebo, % [2]: significantly reduced
Small VLDL, Median Change From Baseline IPE 4 g/day vs Placebo, % [2]: 2.8%
Total HDL, Median Change From Baseline IPE 4 g/day vs Placebo, % [2]: significantly reduced
Total LDL, Median Change From Baseline IPE 4 g/day vs Placebo, % [2]: significantly reduced
Total VLDL, Median Change From Baseline IPE 4 g/day vs Placebo, % [2]: significantly reduced
Small LDL, Median Change From Baseline IPE 4 g/day vs Placebo, % [3]: −13.5%
Total HDL, Median Change From Baseline IPE 4 g/day vs Placebo, % [3]: −7.4%
Total LDL, Median Change From Baseline IPE 4 g/day vs Placebo, % [3]: −7.7%
Total VLDL, Median Change From Baseline IPE 4 g/day vs Placebo, % [3]: −12.2%
Large HDL, Median Change From Baseline IPE 4 g/day vs Placebo, % [4]: −31.0%
Large LDL, Median Change From Baseline IPE 4 g/day vs Placebo, % [4]: 34.2%
Large VLDL, Median Change From Baseline IPE 4 g/day vs Placebo, % [4]: −46.4%
Medium VLDL, Median Change From Baseline IPE 4 g/day vs Placebo, % [4]: −12.1%
Small LDL, Median Change From Baseline IPE 4 g/day vs Placebo, % [4]: −13.5%
Total HDL, Median Change From Baseline IPE 4 g/day vs Placebo, % [4]: −7.4%
Total LDL, Median Change From Baseline IPE 4 g/day vs Placebo, % [4]: −7.7%
Total VLDL, Median Change From Baseline IPE 4 g/day vs Placebo, % [4]: −12.2%
